Where two headings read alike, the source gives them in different places.
Columns and labels:
[1] = tested on: strain of Zymoseptoria tritici with a reduced susceptibility to strobilurin fungicides; experiment: In vitro assessment of combination activity with fungicides, pathogen growing on agar; format: cell-based; settings: in combination with azoxystrobin, fluxapyroxad or desthio prothioconazole
Experimental: (§1) Selected compounds are assessed in combination with fungicides against a range of commercially important plant pathogenic fungi.
(§2) The test is conducted as follows. A fungicide is applied to a fungal plant pathogen at a rate slightly below that at which it gave any control, in combination with a suitable dose of the test compound. The test compounds are recorded as active if control of the pathogen was observed.
(§3) In more detail, the test is conducted as follows. For each combination of fungicide, pathogen and test compound, the following wells are used. Well 1 contains a fungal pathogen growing on agar, and a fungicide at a rate just below that at which it gave any control of the pathogen. Well 2 is the same as Well 1, except that the test compound is also added at Rate 1. Well 3 is the same as Well 2, except that the test compound is added at Rate 2, where Rate 2 is higher than Rate 1. Finally, as a benchmark, Well 4 is the same as Well 1, except that it contained the fungicide at a higher rate, at which it gave partial control of the pathogen. Each of the Wells 1 to 4 are run in duplicate, giving a total of 8 wells for each combination of fungicide, pathogen and test compound. For each well, after a suitable period of incubation, a visual assessment of the % control of the pathogen by the fungicide is made.
(§4) The following fungicides are used in this assay: azoxystrobin, fluxapyroxad, and desthio prothioconazole. The following fungal pathogens are used in this assay: First, a strain of Zymoseptoria tritici with a reduced susceptibility to strobilurin fungicides; second a strain of Zymoseptoria tritici with a reduced susceptibility to SDHI fungicides (i.e., those that inhibit succinate dehydrogenase); and third, Microdochium nivale. […] In contrast, compounds of the present disclosure are effective in the combination assay, enhancing fungicidal activity of one or more fungicides against at least one strain.

[2] = tested on: strain of Zymoseptoria tritici with a reduced susceptibility to SDHI fungicides; experiment: as above; format: cell-based; settings: in combination with azoxystrobin, fluxapyroxad or desthio prothioconazole
Experimental: as §1, §2, §3, §4

Microdochium nivale = experiment: as above; format: cell-based; settings: in combination with azoxystrobin at a rate just below that giving control; visual % control
Experimental: as §1, §2, §3, §4

apyrase = experiment: Apyrase inhibition assay (screen for apyrase inhibitors, phosphate release read at 630 nm); format: biochemical; settings: inhibitor conc at 1 mM (10 μl added), 3 mM ATP, pH 6.5, room temperature 1 hr
[3] = tested on: Brown Rust (Puccinia recondita) on wheat; experiment: Greenhouse crop test: control of Brown Rust on wheat in combination with commercial fungicides; format: in vivo; settings: wheat JB Diego, inoculated 24 hours after treatment, evaluated at fourteen days
Experimental: In this method, exemplary compounds were evaluated for their ability to control Brown Rust (Puccinia recondita) on wheat in a controlled greenhouse environment in combination with one of four fungicides, Amistar, Imtrex, Proline or Balaya. In these studies, wheat plants (JB Diego) were used. Seeds were sown in 9 cm diameter pots to a depth of 1 to 2 cm using Petersfield potting compost (75% medium grade peat, 12% screened sterilized loam, 3% medium grade vermiculite, 10% grit (5 mm screened, lime free), 1.5 kg PG mix per m3, lime to pH5.5-6.0 and wetting agent (Vitax Ultrawet 200 ml per m3) and germinated/grown at 23 C under a 16 h day/8 h night light regime. Plants were treated two to three weeks after sowing when they were at the BBCH 11 growth stage ([…]). Wheat plants were inoculated with Puccinia triticina (Brown rust) 24 hours after treatment. A track sprayer was used to treat the plants with the mixture of commercial fungicide and test compound using a water volume of 200 L/ha. Four replicates were used for each combination of fungicide, pathogen and test compound. Each plant was evaluated at fourteen days (once the disease symptoms were fully expressed) for % control of the disease. Appropriate controls were used for all experiments, including an ‘inoculation check’ wherein plants were inoculated with their specific pathogen to assess disease levels. Also, each commercial fungicide was tested on its own as a part of each treatment, this being benchmark against which the experimental compounds were evaluated. […] That is, the present compounds, although not fungicidal by themselves, enhance the activity of fungicides, thus the enhancer compounds work synergistically in combination with fungicides to control disease. • Amistar (0.04 L/ha) • Imtrex (0.45 L/ha) • Proline (0.15 L/ha) • Balaya (0.25 L/ha)

[4] = tested on: Amaranthus retroflexus (pigweed); experiment: Enhancement of herbicide activity: pre-emergence Amaranthus kill with metribuzin; format: in vivo; settings: for pest or weed control at 100 g/ha: Amaranthus retroflexus
Experimental: Specifically, Amaranthus retroflexus (pigweed) was treated pre-emergence with metribuzin alone or in combination with an enhancer compound disclosed herein. Fifteen seeds of Amaranthus retroflexus were sown in soil in each pot and then sprayed with a mixture of metribuzin at the appropriate rate shown in Table 5 and the compound of this invention at 100 g/ha using a track sprayer at a water volume of 200 L/hectare. Small amounts of acetone were used to aid solubility. The pots were watered immediately after sowing and treatment and then allowed to stand in a glasshouse. Assessment of kill was made seven and fourteen days after treatment. The test included four replicates for each treatment and the control.

Row | SMILES | enhancement of fungicide activity against Zymoseptoria tritici strain (reduced susceptibility to strobilurin fungicides) [1] | enhancement of fungicide activity against Zymoseptoria tritici strain (reduced susceptibility to SDHI fungicides) [2] | enhancing the activity of azoxystrobin against Microdochium nivale (Microdochium nivale) | Inhibition (apyrase) | Amistar (% control of the disease, compound + fungicide) ([3]; with Amistar 0.04 L/ha) [%] | Balaya (% control of the disease, compound + fungicide) ([3]; with Balaya 0.25 L/ha) [%] | Imtrex (% control of the disease, compound + fungicide) ([3]; with Imtrex 0.45 L/ha) [%] | Proline (% control of the disease, compound + fungicide) ([3]; with Proline 0.15 L/ha) [%] | pest or weed control at 100 g/ha ([4]; 168 h, read-out: Pre-Emergence Amaranthus Kill Percentage, Assessed 7 DAT, Metribuzin rate 50 g/ha) [%] | pest or weed control at 100 g/ha ([4]; 168 h, read-out: Pre-Emergence Amaranthus Kill Percentage, Assessed 7 DAT, Metribuzin rate 100 g/ha) [%] | pest or weed control at 100 g/ha ([4]; 168 h, read-out: Pre-Emergence Amaranthus Kill Percentage, Assessed 7 DAT, Metribuzin rate 200 g/ha) [%] | pest or weed control at 100 g/ha ([4]; 336 h, read-out: Pre-Emergence Amaranthus Kill Percentage, Assessed 14 DAT, Metribuzin rate 50 g/ha) [%] | pest or weed control at 100 g/ha ([4]; 336 h, read-out: Pre-Emergence Amaranthus Kill Percentage, Assessed 14 DAT, Metribuzin rate 100 g/ha) [%] | pest or weed control at 100 g/ha ([4]; 336 h, read-out: Pre-Emergence Amaranthus Kill Percentage, Assessed 14 DAT, Metribuzin rate 200 g/ha) [%] | enhancement of metribuzin herbicidal activity ([4]; compound at 100 g/ha with metribuzin, at seven and fourteen days)
1 | O=C(Nc1cccc([N+](=O)[O-])c1)c1cccc(S(=O)(=O)Nc2ccc(Br)cc2)c1 [Roux Compound 13] | failing to enhance activity of any fungicide | failing to enhance activity of any fungicide | exhibited activity | – | – | – | – | – | – | – | – | – | – | – | –
2 | CCCc1ccc(S(=O)(=O)Nc2cccc(C)c2)cc1 [Compound A-62, 4-propyl-N-(m-tolyl)benzenesulfonamide] | – | – | – | A (A is inhibition above 30%) | 71.7 | 21.7 | 38.8 | 1.4 | 23.5 | 58.9 | 95.8 | 35.7 | 61 | 96 | significant enhancement

Reference: patent US20250275539A1, “APYRASE INHIBITORS” (Texas Crop Science, Inc., priority 2024, published 2025)
